One may read the chromatographic logP as lipophilicity estimated from chromatographic retention.

The values that follow come from patent publication US12534456B2, “Heterocyclyl pyridines as novel fungicides” (Bayer Aktiengesellschaft, priority 2020, dated 2026).

This data set is described as follows: physchem. Format: physicochemical. As for the experimental part:
Measurement of Log P values as provided herein was performed according to EEC directive 79/831 Annex V.A8 by HPLC (High Performance Liquid Chromatography) on reversed phase columns with the following methods: • ^[a]
If more than one Log P value is available within the same method, all the values are given and separated by “+”.
Lambda-max-values were determined using UV-spectra from 200 nm to 400 nm and the peak values of the chromatographic signals

The mark [1] stands for this setting: Table 11, compounds of formula (6), method [a]: LC-UV, acidic range, 0.1% formic acid in water and acetonitrile.
The mark [2] stands for this setting: Table 13, compounds of formula (7), method [a].

With `CC1ON=C(c2cc(Cl)ncc2Oc2cccc(C(F)(F)F)c2)NC1c1ccc(Cl)cc1` (mixture of isomers) [Compound I-042], the LogP is 4.19^[a].
`FC1ON=C(c2cc(Cl)ncc2Oc2cccc(C(F)(F)F)c2)NC1c1ccc(Cl)cc1` (mixture of isomers) [Compound I-051]: the LogP was 3.33^[a].
On to `CC(=O)OC1ON=C(c2cc(Cl)ncc2Oc2cccc(C(F)(F)F)c2)NC1c1ccc(Cl)cc1` (mixture of isomers) [Compound I-073], for which the LogP is 4.08^[a].
In the case of `CCC1ON=C(c2cc(Cl)ncc2Oc2cccc(C(F)(F)F)c2)NC1c1ccc(OC)cc1` (mixture of isomers) [Compound I-122], the LogP was 4.07^[a].
Still for that read-out and setting: for `FC(F)(F)c1cccc(Oc2cnc(Cl)cc2C2=NOC(C3CC3)C(c3ccc(Cl)cc3)N2)c1` (mixture of isomers) [Compound I-139] the value was 4.47^[a]; for `Cc1ccc(CC2CON=C(c3cc(Cl)ncc3Oc3cccc(C4CC4F)c3)N2)c(C)c1` (mixture of isomers) [Compound I-143], 4.38^[a].
For `Cc1ccc(CC(CON2C(=O)c3ccccc3C2=O)NC(=O)c2cc(Cl)ncc2Oc2cccc(C(F)(F)F)c2)c(C)c1` (racemic) [Compound 3-01, 2-chloro-N-{(2RS)-1-(2,4-dimethylphenyl)-3-[(1,3-dioxo-1,3-dihydro-2H-isoindol-2-yl)oxy]propan-2-yl}-5-[3-(trifluoromethyl)phenoxy]isonicotinamide], the chromatographic logP (Table 7, compounds of formula (3), method [a]) is 5.14.
As for `Cc1ccc(CC(CON)NC(=O)c2cc(Cl)ncc2Oc2cccc(C(F)(F)F)c2)c(C)c1` (racemic) [Compound 4-01, N-[(2RS)-1-(aminooxy)-3-(2,4-dimethylphenyl)propan-2-yl]-2-chloro-5-[3-(trifluoromethyl)phenoxy]isonicotinamide], the chromatographic logP (Table 9, compounds of formula (4a)/(4b), method [a]) was 3.48.
The compound `Cc1ccc(CC(CON)NC(=O)c2cc(C(F)(F)F)ncc2Br)c(C)c1` (racemic) [Compound 6-03, N-[(2RS)-1-(aminooxy)-3-(2,4-dimethylphenyl)propan-2-yl]-5-bromo-2-(trifluoromethyl)isonicotinamide] registered a chromatographic logP under setting [1] of 2.51.
On the same count and under the same terms, for `Cc1ccc(CC(CON2C(=O)c3ccccc3C2=O)NC(=O)c2cc(C(F)(F)F)ncc2Br)c(C)c1` (racemic) [Compound 6-04, 5-bromo-N-{(2RS)-1-(2,4-dimethylphenyl)-3-[(1,3-dioxo-1,3-dihydro-2H-isoindol-2-yl)oxy]propan-2-yl}-2-(trifluoromethyl)isonicotinamide] the value was 4.4.
Under setting [2], `Cc1ccc(CC2CON=C(c3ccncc3Br)N2)cc1` (racemic) [Compound 7-02, (5RS)-3-(3-bromopyridin-4-yl)-5-(4-methylbenzyl)-5,6-dihydro-4H-1,2,4-oxadiazine] gave a chromatographic logP of 2.31.
The same measure, in the same setting: for `Cc1ccc(CC2CON=C(c3cc(C(F)(F)F)ncc3Br)N2)c(C)c1` (racemic) [Compound 7-03, (5RS)-3-[5-bromo-2-(trifluoromethyl)pyridin-4-yl]-5-(2,4-dimethylbenzyl)-5,6-dihydro-4H-1,2,4-oxadiazine] the value was 2.43.
`Cc1ccc(CC(CCl)NC(=O)c2ccncc2Br)cc1` (racemic) [Compound 17-01, 3-bromo-N-[(2RS)-1-chloro-3-(4-methylphenyl)propan-2-yl]isonicotinamide] returned a chromatographic logP (Table 22, compounds of formula (17), method [a]) of 2.8.
Take `Cc1ccc(CC(CCl)NC(=NO)c2ccncc2Br)cc1` (racemic) [Compound 18-01, 3-bromo-N-[(2RS)-1-chloro-3-(4-methylphenyl)propan-2-yl]-N′-hydroxypyridine-4-carboximidamide]: the chromatographic logP (Table 24, compounds of formula (18), method [a]) came out at 2.78.
As to `Cc1ccc(CC2CON=C(c3cc(Cl)ncc3Oc3cccc(Cl)c3)N2)c(C)c1` (racemic) [Compound I-002], the LogP is 4.51^[a].
For the compound `Cc1ccc(CC2CON=C(c3cc(Cl)ncc3Oc3cccc(C(F)F)c3)N2)c(C)c1` (racemic) [Compound I-003], the LogP is 4.08^[a].
